From ChEMBL document CHEMBL3808275, “Design, synthesis and SARs of novel salicylanilides as potent inhibitors of RANKL-induced osteoclastogenesis and bone resorption” (Eur J Med Chem, 2016) come the findings set out here.

The source made the active and inactive calls. No cut-off for these calls is given here.

Series [1] can be described thus: Cytotoxicity against mouse RAW264.7 cells assessed as reduction in cell viability after 24 hrs by MTT assay. The class given is cell-based.
The test system of series [2] is RAW264.7. The experiment in a line: Inhibition of RANKL-induced osteoclast differentiation in mouse RAW264.7 cells assessed as TRAP-positive multinucleated cells level at 2.5 uM incubated with compound in presence of RANKL for 4 days by TRAP staining based light microscopic analysis relative to RANKL alone. The class given is functional. More on the design: scale not given: the % may be the effect or the level left.

For series [3], the target named is T1, Nuclear factor of activated T-cells, cytoplasmic 1 (Mus musculus) (UniProt O88942).
T1 sequence (whole entry): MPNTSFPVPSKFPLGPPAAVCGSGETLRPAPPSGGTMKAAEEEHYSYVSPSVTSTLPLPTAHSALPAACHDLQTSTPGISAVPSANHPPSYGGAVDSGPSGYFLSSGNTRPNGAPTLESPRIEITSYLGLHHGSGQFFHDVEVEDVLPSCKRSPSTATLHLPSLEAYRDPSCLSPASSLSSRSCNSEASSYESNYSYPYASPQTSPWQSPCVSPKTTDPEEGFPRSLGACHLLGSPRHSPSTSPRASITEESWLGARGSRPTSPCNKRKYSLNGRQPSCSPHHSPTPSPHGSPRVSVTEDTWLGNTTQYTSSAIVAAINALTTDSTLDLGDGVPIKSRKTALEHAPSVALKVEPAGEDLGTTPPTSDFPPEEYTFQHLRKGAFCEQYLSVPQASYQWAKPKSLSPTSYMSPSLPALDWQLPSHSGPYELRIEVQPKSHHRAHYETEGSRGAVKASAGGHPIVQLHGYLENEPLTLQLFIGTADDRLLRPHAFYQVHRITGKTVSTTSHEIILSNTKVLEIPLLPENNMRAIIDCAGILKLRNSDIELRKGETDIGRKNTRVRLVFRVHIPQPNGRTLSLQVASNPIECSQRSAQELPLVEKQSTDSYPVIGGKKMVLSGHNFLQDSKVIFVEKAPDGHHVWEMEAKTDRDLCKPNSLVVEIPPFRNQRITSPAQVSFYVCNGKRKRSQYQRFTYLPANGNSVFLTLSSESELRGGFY
As to the kind of experiment: Inhibition of RANKL-induced NFATc1 translocation in mouse RAW264.7 cells at 1.5 uM incubated with compound in presence of RANKL for 24 hrs by propidium iodide staining based Leica fluorescent microscopic analysis. The class given is cell-based.

In series [4] the test system is RAW264.7. The experiment in a line: Inhibition of RANKL-induced NFATc1 protein expression in mouse RAW264.7 cells at 1.5 and 2 uM incubated with compound in presence of RANKL for 24 hrs by propidium iodide staining based Leica fluorescent microscopic analysis. The class given is functional, cell-based.
The test system of series [5] is RAW264.7. As to the kind of experiment: Inhibition of RANKL-induced osteoclastic bone resorption in mouse RAW264.7 cells assessed as bone resorption area at 1 uM incubated with compound in presence of RANKL for 4 days by pit formation assay. The class given is functional. More on the design: scale not given: the % may be the effect or the level left.
The test system of series [6] is RAW264.7. As to the kind of experiment: Inhibition of RANKL-induced osteoclastic bone resorption in mouse RAW264.7 cells assessed as bone resorption area at 2 uM incubated with compound in presence of RANKL for 4 days by pit formation assay. The class given is functional. More on the design: scale not given: the % may be the effect or the level left.
Series [7] has as its system RAW264.7. The experiment in a line: Cytotoxicity against mouse RAW264.7 cells assessed as reduction in cell viability at 5 uM after 24 hrs by MTT assay. The class given is cell-based. The note with it: raw264.7, 24 h.
In series [8] the test system is RAW264.7. As to the kind of experiment: Inhibition of RANKL-induced osteoclast differentiation in mouse RAW264.7 cells assessed as reduction in TRAP-positive multinucleated cells level incubated with compound in presence of RANKL for 4 days by TRAP staining based light microscopic analysis relative to RANKL alone. The class given is functional, cell-based. The note with it: RAW264.7, 96 h.

A short description of series [9]: Cytotoxicity against mouse RAW264.7 cells assessed as survival rate at 2.5 uM after 24 hrs by MTT assay. The class given is cell-based. The note with it: read-out: Survival.
Series [10] addresses T1, Nuclear factor of activated T-cells, cytoplasmic 1 (Mus musculus). As to the kind of experiment: Inhibition of RANKL-induced NFATc1 translocation in mouse RAW264.7 cells at 2 uM incubated with compound in presence of RANKL for 24 hrs by propidium iodide staining based Leica fluorescent microscopic analysis. The class given is cell-based.
Series [11] relates to RAW264.7. As to the kind of experiment: Inhibition of RANKL-induced osteoclastic bone resorption in mouse RAW264.7 cells assessed as bone resorption area at 1.5 uM incubated with compound in presence of RANKL for 4 days by pit formation assay. The class given is functional. The arrangement: scale not given: the % may be the effect or the level left.

Regarding `O=c1oc2ccc(F)cc2c(=O)n1-c1ccc(I)cc1F`, the half-maximal cytotoxic concentration (CC50) at 24 h in [1] came out at 6 µM. Further, the Activity is recorded as 13.9% in the series on RAW264.7 [2]; 73.07% with RAW264.7 [5]; 16.93% with RAW264.7 [6]; “Toxic” with RAW264.7 [7]; 42.55% with RAW264.7 [11]. Moreover, the inhibition entry (in series [3]; in the series on RAW264.7 [4]; in [10]) was “Active” throughout. In the series with RAW264.7 [8], the IC50 amounted to 2.05 µM. Also, the viability at 24 h, 2.5 µM in series [9] turned out to be 102%.
Turning to `O=C(Nc1ccc(I)cc1F)c1cc(F)ccc1O`, the CC50 at 24 h in [1] turned out to be 7.4 µM. For the same molecule, the Activity is 0.1% in the series with RAW264.7 [2], 23.22% in the series on RAW264.7 [6], “Toxic” in the series with RAW264.7 [7] and 63.98% in the series with RAW264.7 [11]. Besides, the inhibition result (in series [3]; with RAW264.7 [4]; in [10]) was “Active” throughout. In addition, in the series on RAW264.7 [8], the IC50 is 1.57 µM. Besides, the viability at 24 h, 2.5 µM in series [9] worked out at 100%.
